In general, IC50 refers to the point on the concentration scale where inhibition reaches its midpoint. A lower IC50 goes with higher potency.

Structures are written as SMILES.

The experiment has as its target T1, Human ATX protein (Homo sapiens, UniProt Q13822).
T1 construct: made in house
Description: ATX biochemical FRET assay with FS-3 substrate. Conditions: FS-3 substrate 2 μM, ATX 1.0 μg/mL, 30 min preincubation, 2 hours at room temperature. The gist of the method: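 In-house purified human ATX (1.0 μg/mL final) pre-incubated 30 min at room temperature with compound in Tris buffer pH 7.4 with salts and 1 mg/mL fatty acid-free BSA. FS-3 substrate (2 μM final) then hydrolysed 2 h at room temperature, protected from light; fluorescence read at 485/538 nm.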
`CC(NCc1ccc2c(C(F)(F)F)c(O[C@H]3CC[C@@H](C(F)(F)F)CC3)ccc2c1)C1CCC(C(=O)O)CC1` (relative stereo) [Example 41, 4-(1-((5-(trifluoromethyl)-6-((cis)-4-(trifluoromethyl)cyclohexyloxy)naphthalen-2-yl)methylamino)ethyl)cyclohexanecarboxylic acid] gave an IC50 of no more than 500 nM.
Then `CC1(C)C(NCc2ccc3c(C(F)(F)F)c(OC4CCC(C(F)(F)F)CC4)ccc3n2)CC1C(=O)O` (stereo not drawn) [Example 87, 2,2-dimethyl-3-((((5-(trifluoromethyl)-6-(cis-4-(trifluoromethyl)cyclo-hexyl)oxy)quinolin-2-yl)methyl)amino)cyclobutanecarboxylic acid], with no more than 500 nM; and `C[C@H]1CC[C@@H](Oc2ccc3cc(CN4CCCCC(C(=O)O)C4)ccc3c2C(F)(F)F)CC1` (relative stereo) [Example 48, 1-((5-trifluoromethyl-6-(cis-4-methylcyclohexyloxy)naphthalene-2-yl)methyl)-azepane-3-carboxylic acid], with no more than 500 nM; and `C[C@H]1CC[C@@H](Oc2ccc3cc(CN4CCC(CC(=O)O)C4)ccc3c2C(F)(F)F)CC1` (relative stereo) [Example 46, 1-((5-trifluoromethyl-6-(cis-4-methylcyclohexyloxy)naphthalene-2-yl)methyl)-pyrrolidine-3-acetic acid], with no more than 500 nM.
`C[C@H]1CC[C@@H](Oc2ccc3cc(C(C(=O)O)N4CCC(C(=O)O)CC4)ccc3c2C(F)(F)F)CC1` (stereo partly drawn) [Example 11, 1-(Carboxy(6-((cis-4-methylcyclohexyl)oxy)-5-(trifluoromethyl)naphthalen-2-yl)methyl)piperidine-4-carboxylic acid] returned an IC50 of no more than 500 nM.
With `O=C(O)[C@H]1CC[C@H](CNCc2ccc3c(C(F)F)c(O[C@H]4CC[C@@H](C(F)(F)F)CC4)ccc3c2)CC1` [Example 34, (trans)-4-(((5-(difluoromethyl)-6-((cis)-4-(trifluoromethyl)cyclohexyloxy)naphthalen-2-yl)methylamino)methyl)cyclohexanecarboxylic acid], the IC50 was no more than 250 nM.
On to `O=C(O)CC1CCN(Cc2ccc3c(C(F)(F)F)c(O[C@H]4CC[C@@H](C(F)(F)F)CC4)ccc3c2)C1` (relative stereo) [Example 64, 1-((5-(trifluoromethyl)-6-((cis-4-(trifluoromethyl)cyclohexyl)oxy)-naphthalen-2-yl)methyl)pyrrolidine-3-acetic acid], for which the half-maximal inhibitory concentration (IC50) is no more than 250 nM.
The compound `CC(c1ccc2c(C(F)(F)F)c(O[C@H]3CC[C@@H](C)CC3)ccc2c1)N1CCC(C(=O)O)CC1` (relative stereo) [Example 45, 1-(1-(5-trifluoromethyl-6-(cis-4-methylcyclohexyloxy)naphthalene-2-yl)ethyl)-piperidine-4-carboxylic acid] showed an IC50 of no more than 500 nM.
Then `CC(C)CC(NC1CC(C(=O)O)C1(C)C)c1ccc2c(C(F)(F)F)c(O[C@H]3CC[C@@H](C)CC3)ccc2c1` (relative stereo) [Example 90, 2,2-dimethyl-3-(1-(6-((cis)-4-methylcyclohexyloxy)-5-(trifluoromethyl)naphthalen-2-yl)-3-methylbutylamino)cyclobutanecarboxylic acid], with no more than 500 nM; and `CC(NC1CC(C(=O)O)C1(C)C)c1ccc2c(C(F)(F)F)c(O[C@H]3CC[C@@H](C(F)(F)F)CC3)ccc2n1` (stereo partly drawn) [Example 15, 2,2-dimethyl-3-(((1-(5-(trifluoromethyl)-6-(cis-4-(trifluoromethyl)cyclo-hexyl)oxy)quinolin-2-yl)ethyl)amino)cyclobutanecarboxylic acid], with no more than 250 nM; and `O=P(O)(O)CCCNCc1ccc2c(C(F)(F)F)c(O[C@H]3CC[C@@H](C(F)(F)F)CC3)ccc2c1` [Example 63, 3-(((5-(trifluoromethyl)-6-(cis-4-(trifluoromethyl)cyclohexyloxy)naphthalene-2-yl)methyl)amino)propylphosphonic acid], with no more than 100 nM.

The values are drawn from patent US9555050B2 (BIOGEN MA INC., priority 2012, dated 2017).
